This is an account of results in publication PMC9610285 (Pharmaceutics, 2022).

The conditions of data set [1]: healthy volunteers, 1 mg single oral dose.
For data set [2] the following is noted: cited from earlier work.

`C#CCN[C@@H]1CCc2ccccc21` [rasagiline, Rasagiline]: the “adverse drug reactions (AEs causally related to rasagiline intake)” value in data set [1] is recorded as “Only one AE (headache)”. Also, in data set [2], the “capacity to cross the blood-brain barrier” value is listed as “high capacity to cross the blood-brain barrier”, the “elimination half-life (t1/2)” value is 36 to 120 min, the oral bioavailability is listed as 36% and the plasma protein binding is reported as 60–70%. Further, in data set [2], the urine elimination is 62.6%. Further, in data set [2] (oral tablet), the “tmax (time to reach Cmax)” value was “approximately 0.5 h”.
